Assay results published in US20260224582A1, “Heterobicyclic amides as inhibitors of CD38” (Cerevance, Inc., priority 2022, published 2026).

Key:
Recombinant mouse CD38 = target: T1, Recombinant mouse CD38 (Mus musculus, UniProt P56528); assay: Mouse CD38 hydrolase assay (fluorescence-based, ε-NAD substrate); format: biochemical; settings: recombinant mouse CD38 0.4 nM, 12 μM ε-NAD, 30 min preincubation at 25° C.
T1 sequence (P56528 1-304): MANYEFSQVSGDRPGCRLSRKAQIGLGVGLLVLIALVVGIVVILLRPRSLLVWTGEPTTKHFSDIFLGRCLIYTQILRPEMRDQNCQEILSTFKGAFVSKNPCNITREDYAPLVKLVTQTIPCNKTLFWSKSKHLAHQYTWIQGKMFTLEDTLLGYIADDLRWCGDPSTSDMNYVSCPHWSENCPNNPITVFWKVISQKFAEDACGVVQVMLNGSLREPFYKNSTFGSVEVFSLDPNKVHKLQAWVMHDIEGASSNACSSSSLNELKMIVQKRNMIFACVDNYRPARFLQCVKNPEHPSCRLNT
Outline: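 Recombinant mouse CD38 (0.4 nM) preincubated with compound 30 min at 25° C in PBS without Ca/Mg, 0.005% BSA, pH 7.4, then 12 μM ε-NAD added. Fluorescence (ex 300/em 410 nm) read at 0 and 6 min, difference used. IC50 from 10-point half-log curve, four-parameter fit, normalised to tool-inhibitor low control.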

[1] = Tissue binding assay (equilibrium dialysis), brain homogenate; format: in vitro ADME; settings: mouse brain homogenate, dialysis 4 hours at 37° C., pH 7.4
Description: (§1) Buffer preparation. A basic solution was prepared by dissolving 14.2 g/L Na2HPO4 and 8.77 g/L NaCl in deionized H2O. An acidic solution was prepared by dissolving 15.6 g/L NaH2PO4·2H2O and 8.77 g/L NaCl in deionized H2O. Using the acidic solution, the basic solution was then titrated to pH 7.4±0.1 and stored at 4° C. for up to 1 month. The stop solution was 100% CH3CN containing 200 ng/ml tolbutamide, 200 ng/ml labetalol and 50 ng/ml metformin.
(§2) Test method. Dialysis membrane strips were soaked in ultra-pure water at room temperature for ~1 hour. Each membrane strip containing 2 membranes was separated and soaked in 20:80 EtOH/H2O (v/v) for ~20 min, after which they were ready for use or were stored in the solution at 2-8° C. for up to 1 month. Prior to the experiment, the membrane was rinsed and soaked for 20 min in ultra-pure water. On the day of experiment, brain homogenate was thawed in a water bath at room temperature and incubated at 37° C. for 10 min before use. Test and control compounds were dissolved in DMSO to achieve 10 mM stock solutions. DMSO working solutions were prepared at 400 μM by diluting 10 μL of stock solution. To prepare the time zero (t=0) samples to be used for recovery determination, 50 μL aliquots of loading matrix were transferred in triplicate to the sample collection plate. The samples were immediately matched with opposite blank buffer to obtain a final volume of 100 μL of 1:1 matrix/dialysis buffer (v/v) in each well. 500 μL of stop solution were added to these t=0 samples. They were then stored at 2-8° C. pending further processes along with other post-dialysis samples. To load the dialysis device, an aliquot of 150 μL of the loading matrix was transferred to the donor side of each dialysis well in triplicate, and 150 μL of the dialysis buffer was loaded to the receiver side of the well. The dialysis plate was placed in a humidified incubator at 37° C. with 5% CO2 on a shaking platform that rotated slowly (about 100 rpm) for 4 hours. At the end of the dialysis, aliquots of 50 μL of samples were taken from both the buffer side and the matrix side of the dialysis device. These samples were transferred into new 96-well plates. Each sample was mixed with an equal volume of opposite blank matrix (buffer or matrix) to reach a final volume of 100 μL of 1:1 matrix/dialysis buffer (v/v) in each well. All samples were further processed by adding 500 μL of stop solution containing internal standards. The mixture was vortexed and centrifuged at 4000 rpm for about 20 min. An aliquot of 100 μL of supernatant of all the samples was then removed for LC-MS/MS analysis. The single blank samples were prepared by transferring 50 μL of blank matrix to a 96-well plate and adding 50 μL of blank PBS buffer to each well. Then the matrix-matched samples were further processed by adding 500 μL of stop solution containing internal standards, following the same sample processing method as the dialysis samples.
(§3) Data analysis. The % undiluted unbound, % undiluted bound and % recovery were calculated using the following equations: […]
(§4) where F is the analyte concentration or peak area ratio of analyte/internal standard on the buffer (receiver) side of the membrane; T is the analyte concentration or peak area ratio of analyte/internal standard on the matrix (donor) side of the membrane; To is the analyte concentration or the peak area ratio of analyte/internal standard in the loading matrix sample at time zero; and D is the dilution factor determined as 4 in this assay.

[2] = Tissue binding assay (equilibrium dialysis), plasma; format: in vitro ADME; settings: mouse plasma, dialysis 4 hours at 37° C., pH 7.4
Description: [Worded in the source for another target; this target is reported under the same test.] as §1, §2, §3, §4

Compound	IC50 (Recombinant mouse CD38) [nM]	fraction unbound at 4 h [1]	fraction unbound at 4 h [2]
O=C(N[C@H]1CC[C@H](NCC(F)(F)F)CC1)c1nc(-n2ccnc2)nc2ncccc12 [Example 4, 2-(1H-imidazol-1-yl)-N-((1r,4r)-4-((2,2,2-trifluoroethyl)amino)cyclohexyl)pyrido[2,3-d]pyrimidine-4-carboxamide]	≤ 40	0.41	0.4
O=C(N[C@H]1CC[C@H](N2CCC(F)(F)C2)CC1)c1nc(-n2ccnc2)nn2cccc12 [Example 12, N-((1r,4r)-4-(3,3-difluoropyrrolidin-1-yl)cyclohexyl)-2-(1H-imidazol-1-yl)pyrrolo[2,1-f][1,2,4]triazine-4-carboxamide]	≤ 40	0.068	0.062
O=C(N[C@H]1CC[C@H](N2CC[C@H](F)C2)CC1)c1nc(-n2ccnc2)nn2cccc12 [Example 13, N-((1S,4r)-4-((S)-3-fluoropyrrolidin-1-yl)cyclohexyl)-2-(1H-imidazol-1-yl)pyrrolo[2,1-f][1,2,4]triazine-4-carboxamide]	≤ 40	0.056	0.22
O=C(N[C@H]1CC[C@H](N2CC[C@@H](F)C2)CC1)c1nc(-n2ccnc2)nn2cccc12 [Example 14, N-((1R,4r)-4-((R)-3-fluoropyrrolidin-1-yl)cyclohexyl)-2-(1H-imidazol-1-yl)pyrrolo[2,1-f][1,2,4]triazine-4-carboxamide]	≤ 40	0.056	0.24
O=C(N[C@H]1CC[C@H](NCC(F)(F)F)CC1)c1cn2ccnc2c(-n2ccnc2)n1 [Example 19, 8-(1H-imidazol-1-yl)-N-((1r,4r)-4-((2,2,2-trifluoroethyl)amino)cyclohexyl) imidazo[1,2-a]pyrazine-6-carboxamide]	≤ 40	0.25	0.19
O=C(N[C@H]1CC[C@H](NCC(F)(F)F)CC1)c1cn2ncnc2c(-n2ccnc2)n1 [Example 20, 8-(1H-imidazol-1-yl)-N-((1r,4r)-4-((2,2,2-trifluoroethyl)amino)cyclohexyl)-[1,2,4]triazolo[1,5-a]pyrazine-6-carboxamide]	≤ 40	0.34	0.14
O=C(N[C@H]1CC[C@H](NCC(F)(F)F)CC1)c1cn2nccc2c(-n2ccnc2)n1 [Example 21, 4-(1H-imidazol-1-yl)-N-((1r,4r)-4-((2,2,2-trifluoroethyl)amino)cyclohexyl)pyrazolo[1,5-a]pyrazine-6-carboxamide]	≤ 40	0.34	0.3
O=C(N[C@H]1CC[C@H](NCC(F)(F)F)CC1)c1nc(-n2ccnc2)nn2cccc12 [Example 29, 2-(1H-imidazol-1-yl)-N-((1r,4r)-4-((2,2,2-trifluoroethyl)amino)cyclohexyl)pyrrolo[2,1-f][1,2,4]triazine-4-carboxamide]	≤ 40	0.064	0.044
O=C(N[C@H]1CC[C@H](N2CCC(F)(F)C2)CC1)c1cn2ccnc2c(-n2ccnc2)n1 [Example 41, N-((1r,4r)-4-(3,3-difluoropyrrolidin-1-yl)cyclohexyl)-8-(1H-imidazol-1-yl) imidazo[1,2-a]pyrazine-6-carboxamide]	≤ 40	0.15	0.2
O=C(N[C@H]1CC[C@H](N2CC(F)(F)C2)CC1)c1cn2ncnc2c(-n2ccnc2)n1 [Example 45, N-((1r,4r)-4-(3,3-difluoroazetidin-1-yl)cyclohexyl)-8-(1H-imidazol-1-yl)-[1,2,4]triazolo[1,5-a]pyrazine-6-carboxamide]	≤ 40	0.15	0.2
O=C(N[C@H]1CC[C@H](N2CCC(F)(F)C2)CC1)c1cn2ncnc2c(-n2ccnc2)n1 [Example 48, N-((1r,4r)-4-(3,3-difluoropyrrolidin-1-yl)cyclohexyl)-8-(1H-imidazol-1-yl)-[1,2,4]triazolo[1,5-a]pyrazine-6-carboxamide]	≤ 40	0.15	0.24
